In paper PMC5985520 (Molecular bioSystems, 2009):
Read-outs that look alike come from different tables or passages of the source.

Biological target: C2 domain of PKCα (Homo sapiens, UniProt P17252)
Test: SPR equilibrium binding of PKCα-C2 to lipid vesicles containing PA derivatives

In the case of `CCCCCCCC/C=C\CCCCCCCC(=O)O[C@H](COC(=O)CCCCCCCCCCCCCCC)COP(=O)(O)O` [POPA, 1-palmitoyl-2-oleoyl-sn-glycero-3-phosphatidic acid], the Kd (read-out: Kd (dissociation constant for binding of PKCα-C2 to vesicles containing PA derivative), POPC:POPE:PA (40:40:20) vesicles, 20 mol% PA, L1 chip, 25°C, 25 mM Tris HCl pH 7.4, 150 mM NaCl, 1 mM CaCl2, 1 mM DTT) is reported as 440 ± 50 nM and the Kd (read-out: Kd (dissociation constant for binding of PKCα-C2 to vesicles containing PA derivative), POPC:POPE:PA (55:40:5) vesicles, 5 mol% PA, L1 chip, 25°C, 25 mM Tris HCl pH 7.4, 150 mM NaCl, 1 mM CaCl2, 1 mM DTT) is reported as 490 ± 90 nM.
